Experiment [1] has as its system cotton aphid. Nature of the experiment: Test Example 2: irrigation into plant foot of cucumber seedling, cotton aphid inoculated after 7 days. The experiment is classed as in vivo, Aphis gossypii. Particulars: 1,000 ppm, 5 mL/seedling irrigated into plant foot, aphids inoculated after 7 days, counted after additional 6 days. As to the method:
The test compounds were made to a formulation according to the method described in the Formulation Example 5, and thereto was added water to prepare a diluted solution containing a prescribed concentration of the test compound. Cucumber seedling (on the developmental stage of the second true leaf) was planted in a container, and the diluted solutions in the ratio on 5 mL/seedling were irrigated into the plant foot. After 7 days, approximately 30 of cotton aphid (all stages of life) were inoculated onto the cucumber leaves. After additional 6 days, the number of the surviving insects was examined, and the controlling value was calculated by the following equation. Controlling value (%)={1−(Cb×Tai)/(Cai×Tb)}*100 wherein the symbols in the formula represent the following descriptions. Cb: Number of the test insects in untreated group; Cai: Number of the surviving insects at the time of the investigation in untreated group; Tb: Number of the test insects in treated group; Tai: Number of the surviving insects at the time of the investigation in treated group; Here the “untreated group” represents a group where a similar treatment procedure to that of the treated group except not using the test compound is done.

The subject of experiment [2] is brown planthopper (Nilaparvata lugens). Nature of the experiment: Test Example 3: spray on rice seedling, brown planthopper larvae. Format: in vivo. Particulars: 500 ppm, spray 10 mL/seedling, 3rd instar larvae, counted after 6 days. How it is done:
The test compounds were made to a formulation according to the method described in the Formulation Example 5, and thereto was added water containing 0.03 v/v % of a spreader to prepare a diluted solution containing a prescribed concentration of the test compound.
Rice (Oryza sativa) seedling (on the developmental stage of the second true leaf) was planted in a container, and the diluted solutions were sprayed into the seedling in a ratio of 10 mL/seedling. Thereafter, 20 of 3rd instar larvae of brown planthopper (Nilaparvata lugens) were released onto the rice leaves. After 6 days, the number of the surviving insects was examined, and the mortality was calculated by the following equation. Mortality (%)={1−the number of the surviving insects/20}×100

Structures are written as SMILES.

`CCS(=O)(=O)c1ccc2nncn2c1-c1ccc(OCC(F)(F)C(F)(F)F)cn1` [compound 4]: the controlling value in experiment [1] and in experiment [2] was not below 90% in each case.

Source of the values: patent US11161843B2, “Fused heterocyclic compound and composition containing same” (Sumitomo Chemical Company, Limited, priority 2017, dated 2021).
